Measured values taken from ChEMBL document CHEMBL2413004, “Synthesis and in vitro cytostatic activity of 1,2- and 1,3-diacylglycerophosphates of clofarabine” (Bioorg Med Chem, 2013).

Experiments:
Format in all cases: functional, cell-based
HeLa = assay: Cytostatic activity against human HeLa cells after 48 hrs by MTT assay
MCF7 = assay: Cytostatic activity against human MCF7 cells after 48 hrs by MTT assay; conditions: MCF7, 48 h
HL-60 = assay: Cytostatic activity against human HL60 cells after 48 hrs by MTT assay; conditions: HL-60, 48 h
A549 = assay: Cytostatic activity against human A549 cells after 48 hrs by MTT assay; conditions: A549, 48 h

Row | Structure (SMILES) | IC50 (HeLa) | IC50 (MCF7) | IC50 (HL-60) | IC50 (A549)
1 | CCCCCCCCCCCCCCCC(=O)OCC(COC(=O)CCCCCCCCCCCCCCC)OP(=O)(O)OC[C@H]1O[C@@H](n2cnc3c(N)nc(Cl)nc32)[C@@H](F)[C@@H]1O | 100 µM | 30 µM | 55 µM | 90 µM
2 | CCCCCCCCCCCCCC(=O)OC[C@@H](COP(=O)(O)OC[C@H]1O[C@@H](n2cnc3c(N)nc(Cl)nc32)[C@@H](F)[C@@H]1O)OC(=O)CCCCCCCCCCCCC | 50 µM | 40 µM | 0.8 µM | > 100 µM
3 | Nc1nc(Cl)nc2c1ncn2[C@@H]1O[C@H](CO)[C@@H](O)[C@@H]1F [CLOFARABINE] | 50 µM | 50 µM | 0.1 µM | 8 µM
4 | CCCCCCCCCCCCCCCC(=O)OC[C@@H](COP(=O)(O)OC[C@H]1O[C@@H](n2cnc3c(N)nc(Cl)nc32)[C@@H](F)[C@@H]1O)OC(=O)CCCCCCCCCCCCCCC | > 100 µM | > 100 µM | 10 µM | > 100 µM
5 | CCCCCCCCCCCCCC(=O)OCC(COC(=O)CCCCCCCCCCCCC)OP(=O)(O)OC[C@H]1O[C@@H](n2cnc3c(N)nc(Cl)nc32)[C@@H](F)[C@@H]1O | > 100 µM | 40 µM | > 100 µM | > 100 µM
